Patent US5072038A, “2,3,4,5-tetrahalogenobenzene derivatives” (Bayer Aktiengesellschaft, priority 1984, dated 1991)
≈ marks a conversion by molar mass, not a printed value. Where a name gives a salt, the structure may show the parent alone. Read-outs that look alike come from different tables or passages of the source.

What was measured:
Experiment in all cases: MIC, agar dilution test
Type in all cases: cell-based
E. coli 445/7 = details: Escherichia coli, agar dilution test/isosensitest medium
From the text: (§1) | Agar dilution test/isosensitest medium

E. coli Neumann = details: Escherichia coli, agar dilution test/isosensitest medium
From the text: as §1

E. coli T 7 = details: Escherichia coli, T7
From the text: as §1

Klebsiella 6179 = details: agar dilution test/isosensitest medium
From the text: as §1

Klebsiella 63 = details: agar dilution test/isosensitest medium
From the text: as §1

Proteus 1017 = details: agar dilution test/isosensitest medium
From the text: as §1

Providencia 12012 = details: agar dilution test/isosensitest medium
From the text: as §1

Providencia 12052 = details: agar dilution test/isosensitest medium
From the text: as §1

Staph. 133 = details: agar dilution test/isosensitest medium
From the text: as §1

Staph. 1756 = details: agar dilution test/isosensitest medium
From the text: as §1

Staph. FK 422 = details: agar dilution test/isosensitest medium
From the text: as §1

Pseudom. Ellsworth = details: agar dilution test/isosensitest medium
From the text: as §1

[1] = 445/7, E. coli 455/7 (second MIC table)
[2] = E. coli T 7, agar dilution test/isosensitest medium, read-out: MIC
[3] = E. coli 445/7 (first MIC table)

| SMILES | MIC (E. coli 445/7; [1]) | MIC (E. coli Neumann) | MIC (E. coli T 7; [2]) | MIC (Klebsiella 6179) | MIC (Klebsiella 63) | MIC (Proteus 1017) | MIC (Providencia 12012) | MIC (Providencia 12052) | MIC (Staph. 133) | MIC (Staph. 1756) | MIC (Staph. FK 422) | MIC (Pseudom. Ellsworth) | MIC (E. coli 445/7; [3]) | MIC (E. coli T 7) |
| --- | --- | --- | --- | --- | --- | --- | --- | --- | --- | --- | --- | --- | --- | --- |
| O=C(O)c1cn(C2CC2)c2c(Cl)c(N3CCNCC3)c(F)cc2c1=O [Example 21, hydrochloride] | 1 µg/mL | ≤ 0.015 µg/mL | ≤ 0.015 µg/mL | 0.03 µg/mL | 0.06 µg/mL | 0.03 µg/mL | 0.06 µg/mL | 1 µg/mL | 0.06 µg/mL | 0.125 µg/mL | 0.125 µg/mL | – | – | – |
| CC1CN(c2c(Cl)cc3c(=O)c(C(=O)O)cn(C4CC4)c3c2Cl)CCN1 (stereo not shown) [Example 22, 6,8-dichloro-1-cyclopropyl-1,4-dihydro-7-(3-methyl-1-piperazinyl)-4-oxo-3-quinolinecarboxylic acid] | 2 µg/mL (≈ 5.05 µM) | ≤ 0.015 µg/mL | ≤ 0.015 µg/mL | 0.06 µg/mL (≈ 0.151 µM) | 0.03 µg/mL (≈ 0.0757 µM) | 0.06 µg/mL (≈ 0.151 µM) | 0.06 µg/mL (≈ 0.151 µM) | 2 µg/mL (≈ 5.05 µM) | 0.125 µg/mL (≈ 0.315 µM) | 0.125 µg/mL (≈ 0.315 µM) | 0.125 µg/mL (≈ 0.315 µM) | – | – | – |
| CC(=O)CCN1CCN(c2c(Cl)cc3c(=O)c(C(=O)O)cn(C4CC4)c3c2F)CC1 [Example 12, 6-chloro-1-cyclopropyl-8-fluoro-1,4-dihydro-4-oxo-7-[4-(3-oxobutyl)-1-piperazinyl]-3-quinolinecarboxylic acid] | 8 µg/mL (≈ 18.4 µM) | ≤ 0.015 µg/mL | ≤ 0.015 µg/mL | 0.06 µg/mL (≈ 0.138 µM) | ≤ 0.015 µg/mL | 0.03 µg/mL (≈ 0.0688 µM) | ≤ 0.015 µg/mL | 16 µg/mL (≈ 36.7 µM) | 0.25 µg/mL (≈ 0.574 µM) | 0.25 µg/mL (≈ 0.574 µM) | 0.25 µg/mL (≈ 0.574 µM) | 0.125 µg/mL (≈ 0.287 µM) | – | – |
| CC1CN(c2c(Cl)cc3c(=O)c(C(=O)O)cn(C4CC4)c3c2F)CC(C)N1 (stereo not shown) [Example 5] | – | ≤ 0.015 µg/mL | ≤ 0.015 µg/mL | 0.03 µg/mL (≈ 0.0762 µM) | 0.03 µg/mL (≈ 0.0762 µM) | – | – | 32 µg/mL (≈ 81.3 µM) | 0.5 µg/mL (≈ 1.27 µM) | 0.5 µg/mL (≈ 1.27 µM) | 0.25 µg/mL (≈ 0.635 µM) | – | 8 µg/mL (≈ 20.3 µM) | – |
| CCC1CN(c2c(Cl)cc3c(=O)c(C(=O)O)cn(C4CC4)c3c2F)CCN1 (stereo not shown) [Example 3] | – | ≤ 0.015 µg/mL | ≤ 0.015 µg/mL | ≤ 0.015 µg/mL | 0.03 µg/mL (≈ 0.0762 µM) | – | – | 16 µg/mL (≈ 40.6 µM) | 0.25 µg/mL (≈ 0.635 µM) | 0.25 µg/mL (≈ 0.635 µM) | 0.25 µg/mL (≈ 0.635 µM) | – | 8 µg/mL (≈ 20.3 µM) | – |
| CCN1CCN(c2c(Cl)cc3c(=O)c(C(=O)O)cn(C4CC4)c3c2F)CC1 [Example 10, 6-chloro-1-cyclopropyl-7-(4-ethyl-1-piperazinyl)-8-fluoro-1,4-dihydro-4-oxo-3-quinolinecarboxylic acid] | – | ≤ 0.015 µg/mL | – | 0.06 µg/mL (≈ 0.152 µM) | 0.125 µg/mL (≈ 0.317 µM) | – | – | – | – | – | – | – | 16 µg/mL (≈ 40.6 µM) | 0.025 µg/mL (≈ 0.0635 µM) |
| CN1CCN(c2c(Cl)cc3c(=O)c(C(=O)O)cn(C4CC4)c3c2F)CC1 [Example 6] | – | ≤ 0.015 µg/mL | ≤ 0.015 µg/mL | 0.015 µg/mL (≈ 0.0395 µM) | 0.015 µg/mL (≈ 0.0395 µM) | 0.06 µg/mL (≈ 0.158 µM) | 0.03 µg/mL (≈ 0.079 µM) | 4 µg/mL (≈ 10.5 µM) | 0.25 µg/mL (≈ 0.658 µM) | 0.5 µg/mL (≈ 1.32 µM) | 0.025 µg/mL (≈ 0.0658 µM) | – | 4 µg/mL (≈ 10.5 µM) | – |
| CN1CCN(c2c(F)cc3c(=O)c(C(=O)O)cn(C4CC4)c3c2Cl)CC1 [Example 19, 8-chloro-1-cyclopropyl-6-fluoro-1,4-dihydro-7-(4-methyl-1-piperazinyl)-4-oxo-3-quinolinecarboxylic acid] | 1 µg/mL (≈ 2.63 µM) | ≤ 0.015 µg/mL | ≤ 0.015 µg/mL | 0.03 µg/mL (≈ 0.079 µM) | 0.03 µg/mL (≈ 0.079 µM) | 0.03 µg/mL (≈ 0.079 µM) | 0.03 µg/mL (≈ 0.079 µM) | 4 µg/mL (≈ 10.5 µM) | 0.06 µg/mL (≈ 0.158 µM) | 0.06 µg/mL (≈ 0.158 µM) | 0.06 µg/mL (≈ 0.158 µM) | 0.125 µg/mL (≈ 0.329 µM) | – | – |
| O=C(CN1CCN(c2c(Cl)cc3c(=O)c(C(=O)O)cn(C4CC4)c3c2F)CC1)c1ccccc1 [Example 14, 6-chloro-1-cyclopropyl-8-fluoro-1,4-dihydro-4-oxo-7-[4-(2-oxo-2-phenylethyl)-1-piperazinyl]-3-quinolinecarboxylic acid] | 2 µg/mL (≈ 4.13 µM) | ≤ 0.015 µg/mL | ≤ 0.015 µg/mL | 0.25 µg/mL (≈ 0.517 µM) | 0.06 µg/mL (≈ 0.124 µM) | 0.125 µg/mL (≈ 0.258 µM) | 0.06 µg/mL (≈ 0.124 µM) | 16 µg/mL (≈ 33.1 µM) | – | – | – | – | – | – |
